From publication PMC7962978, “PSMA-D4 Radioligand for Targeted Therapy of Prostate Cancer: Synthesis, Characteristics and Preliminary Assessment of Biological Properties” (International Journal of Molecular Sciences, 2021)
Values joined by “and” are separate entries in the source; they are usually repeats but may differ in a detail not shown here. Equal entries are not always repeated.

Legend:
PSMA antigen = target: T1, PSMA antigen (Homo sapiens, UniProt Q04609); assay: Saturation radioligand binding assay on LNCaP (PSMA positive) and PC3 (PSMA negative) cell membranes; conditions: for Kd: LNCaP cell membranes, 2 h, 37 °C; for Specific Binding: total binding on LNCaP minus non-specific binding on PC3 membranes
T1 construct: PSMA antigen expressed on LNCaP cell membranes; endogenous in cells; host or cells: LNCaP cell membranes (PC3 membranes as PSMA-negative control)
T1 sequence (Q04609 whole entry): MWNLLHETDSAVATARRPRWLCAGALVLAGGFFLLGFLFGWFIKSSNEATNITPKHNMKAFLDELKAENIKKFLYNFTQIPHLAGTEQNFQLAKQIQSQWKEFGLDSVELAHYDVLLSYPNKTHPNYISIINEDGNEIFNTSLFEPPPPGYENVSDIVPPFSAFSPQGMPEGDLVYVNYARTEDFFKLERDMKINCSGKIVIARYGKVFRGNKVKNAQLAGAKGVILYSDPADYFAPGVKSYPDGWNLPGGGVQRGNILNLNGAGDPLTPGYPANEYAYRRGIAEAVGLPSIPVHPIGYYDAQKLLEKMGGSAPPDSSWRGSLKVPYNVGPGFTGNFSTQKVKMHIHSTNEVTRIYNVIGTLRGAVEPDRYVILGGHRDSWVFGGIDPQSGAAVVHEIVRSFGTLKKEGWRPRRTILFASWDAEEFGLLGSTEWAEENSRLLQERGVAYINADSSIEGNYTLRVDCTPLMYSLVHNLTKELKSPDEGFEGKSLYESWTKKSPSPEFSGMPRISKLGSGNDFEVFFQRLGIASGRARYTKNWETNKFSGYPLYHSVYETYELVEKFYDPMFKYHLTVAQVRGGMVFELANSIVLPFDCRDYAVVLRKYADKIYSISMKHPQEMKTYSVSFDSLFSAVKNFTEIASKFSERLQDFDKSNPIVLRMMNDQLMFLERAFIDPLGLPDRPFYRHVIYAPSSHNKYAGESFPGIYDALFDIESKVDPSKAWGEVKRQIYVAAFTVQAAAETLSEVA
Procedure: The equilibrium constant (KD) was determined by a saturation binding experiment performed in PSMA positive LNCaP and PSMA negative PC3 cell membranes isolated according to the procedure developed by Fichna et al.. The 50 mcL of LNCaP and PC3 cell membranes were seeded on special MultiScreen™ 96 well filter plates (Merck, Warsaw, Poland) and incubated for 2 h with increasing concentration of [^177Lu]Lu-PSMA-D4, [^90Y]Y-PSMA-D4, and […] (0.016–194 nM) at 37 °C. After incubation, the unbound radiocomplexes were filtered under vacuum, and the membranes were washed twice using PBS. The filters containing membranes with the attached radiotracer were extruded into tubes using MultiScreen Multile Punch (Merck). The number of associated inhibitors was determined by measuring the radioactivity of squeezed filters using Wallac Wizard 1470 γ counter. The KD and Bmax were calculated by nonlinear regression using the GraphPad Prism statistic program.

LNCaP tumor-bearing mice = assay: Ex vivo biodistribution in mice bearing LNCaP tumor
Procedure: An experimental tumor murine model was induced using LNCaP cell, which grew to 80–90% confluence before trypsinization and formulation in Matrixgel™ Basement Membrane Matrix (Bedford, MA, USA) for implantation into mice. The mice were subcutaneously injected in the shoulder with 200 mcL bolus containing a suspension of 10^6 freshly harvested cell line LNCaP in Matrixgel™. This procedure was performed under anaesthesia with 2% isoflurane. The animals were kept under pathogen-free condition, and experiments were performed 2–3 weeks later when a tumor reached a volume of approximately 150 ± 60 mm^3. Then, the animals were randomized into two groups (25 mice per group, five mice per time point): Group 1, treated with a single intravenous injection of [^90Y]Y-PSMA-D4 (0.1 mL, 0.1 mcg, 15.5 MBq, SA 16.7 GBq mg^−1 = 17.2 GBq mcmol^−1) and Group 2, treated with a single intravenous injection of [^47Sc]Sc-PSMA-D4 (0.1 mL, 0.19 mcg, 10 MBq, SA 4.8 GBq mg^−1 = 4.57 GBq mcmol^−1).
At 1, 2, 4, 6, 24, and 48 h after injection, the animals were euthanized by cervical dislocation and dissected. Selected organs and tissues were assayed for their radioactivity and weighted. The physiological distribution was calculated and expressed in terms of the percentage of administrated radioactivity found in each of the selected organs or tissues per gram (%ID g^−1).
Results are provided as mean ± SD. The results of physiological distribution are presented as a percentage of the dose administered per gram of tissue (%ID g^−1) as average value with standard deviation (%ID g^−1; mean ± standard deviation (SD)) with n representing the number of animals per group. Data were statistically analyzed using GraphPad Prism version 8.0.0 for Window.

[1] = Blood pharmacokinetics, one-phase decay model, LNCaP tumor-bearing mice; format: in vivo; conditions: i.v.
Procedure: The pharmacokinetic analysis of the [^47Sc]Sc-PSMA-D4 was based on the curves of the %ID g^−1 accumulated in the blood. The pharmacokinetic parameters were determined according to a one-phase decay model. The following parameters were used: K (rate constant) and half-life calculated as ln(2)/K.
For blood activity data, a one-phase exponential decay model was used to model the percentage of remaining activity (%ID g^−1) as a time post-injection function.

[2] = Lipophilicity determination (logD), shake-flask method; format: physicochemical; conditions: n-octanol / PBS pH 7.4, shake-flask
Procedure: The partition coefficient logD of the radioligands was determined by the shake-flask method. The solution of 10 to 50 MBq of radiolabeled PSMA ligands (D-4, 617, 11, I&T) in 1.0 mL of phosphate-buffered saline (PBS, pH 7.4) was added to 1.0 mL of presaturated n-octanol solution (n = 3). Vials were shaken vigorously for 10 min. To achieve quantitative phase separation, the vials were centrifuged at 1600 rpm for 5 min. The radioactivity concentration in a defined volume of both the aqueous and the organic phase in six replicates each was measured in a γ-counter (Wizard 1470, Wallac, Turku, Finland). The partition coefficient was calculated as the logarithm of the ratio between counts per minute (cpm) measured in the n-octanol phase to the PBS phase counts.

LNCaP cells = assay: Cell uptake (total binding) and internalization in LNCaP cells; format: cell-based, human; conditions: 37 °C, 2 h
Procedure: To determine cell uptake and internalization of [^177Lu]Lu-PSMA-D4 and [^90Y]Y-PSMA-D4, LNCaP cells (5 × 10^5 cells well^−1) were incubated in un-supplemented RPMI 1640 medium with one concentration of tested radioligands on 12-well plates in 37 °C per 2 h. After the appropriate time, the medium was removed, and cells were washed twice using phosphate buffer saline (PBS, IITD PAN, Wroclaw, Poland). The cells were treated twice with 1 mL of 50 mM glycine in 0.1 M NaCl at a pH of 2.8 and incubated for 5 min at room temperature to collect extracellularly bound compound. The internalization was determined by measuring the radioactivity of 1mL of 1 M NaOH used for cell lysis. Total binding was calculated as a sum of the membrane and internalized fractions measured using Wallac Wizard 1470 γ counter. As a control, [^177Lu]Lu-PSMA-617 and [^68Ga]Ga-PSMA-11 were used.

[3] = Blood pharmacokinetics, one-phase model, healthy rats; format: in vivo; conditions: healthy rats (data not presented)

## O=C([O-])CN1CCN(CC(=O)[O-])CCN(CC(=O)NCC2CCC(C(=O)NC(Cc3c[nH]c4ccccc34)C(=O)NCCCCC(NC(=O)NC(CCC(=O)O)C(=O)O)C(=O)O)CC2)CCN(CC(=O)[O-])CC1.[47Sc+3] (centres unmarked) [[^47Sc]Sc-PSMA-D4]
PSMA antigen
  Kd: 3.4 ± 2 nM
  Specific Binding: 98.8 ± 0.9%
LNCaP tumor-bearing mice; 1 h after i.v. injection
  T/B (ratio tumor to blood): 31.6
  T/K (ratio tumor to kidneys): 1.0
  T/M (ratio tumor to muscle): 135.2
  blood: 0.29 ± 0.08 %ID g^−1
  kidneys: 9.46 ± 1.44 %ID g^−1
  large intestine: 0.09 ± 0.03 %ID g^−1
  liver: 0.13 ± 0.02 %ID g^−1
  muscle: 0.10 ± 0.06 %ID g^−1
  small intestine: 0.35 ± 0.19 %ID g^−1
  spleen: 0.52 ± 0.19 %ID g^−1
  stomach: 0.23 ± 0.09 %ID g^−1
  tumor: 9.24 ± 5.13 %ID g^−1
  urine: 89.23 ± 2.63 %ID
LNCaP tumor-bearing mice; 4 h after i.v. injection
  T/B (ratio tumor to blood): 120.9
  T/K (ratio tumor to kidneys): 4.3
  T/M (ratio tumor to muscle): 24.3
  blood: 0.08 ± 0.04 %ID g^−1
  kidneys: 2.16 ± 0.86 %ID g^−1
  large intestine: 0.70 ± 0.48 %ID g^−1
  liver: 0.08 ± 0.04 %ID g^−1
  muscle: 0.39 ± 0.17 %ID g^−1
  small intestine: 0.41 ± 0.30 %ID g^−1
  spleen: 0.57 ± 0.31 %ID g^−1
  stomach: 0.39 ± 0.17 %ID g^−1
  tumor: 9.22 ± 2.21 %ID g^−1
  urine: 93.42 ± 2.07 %ID
LNCaP tumor-bearing mice; 6 h after i.v. injection
  T/B (ratio tumor to blood): 207.6
  T/K (ratio tumor to kidneys): 6.1
  T/M (ratio tumor to muscle): 251.0
  blood: 0.04 ± 0.01 %ID g^−1
  kidneys: 1.42 ± 0.28 %ID g^−1
  large intestine: 0.69 ± 0.17 %ID g^−1
  liver: 0.06 ± 0.01 %ID g^−1
  muscle: 0.03 ± 0.02 %ID g^−1
  small intestine: 0.11 ± 0.07 %ID g^−1
  spleen: 0.08 ± 0.04 %ID g^−1
  stomach: 0.08 ± 0.09 %ID g^−1
  tumor: 8.65 ± 3.19 %ID g^−1
  urine: 94.89 ± 1.34 %ID
LNCaP tumor-bearing mice; 24 h after i.v. injection
  T/B (ratio tumor to blood): 467.3
  T/K (ratio tumor to kidneys): 18.4
  T/M (ratio tumor to muscle): 229.0
  blood: 0.01 ± 0.01 %ID g^−1
  kidneys: 0.29 ± 0.09 %ID g^−1
  large intestine: 0.12 ± 0.12 %ID g^−1
  liver: 0.03 ± 0.01 %ID g^−1
  muscle: 0.02 ± 0.02 %ID g^−1
  small intestine: 0.34 ± 0.18 %ID g^−1
  spleen: 0.04 ± 0.01 %ID g^−1
  stomach: 0.05 ± 0.06 %ID g^−1
  tumor: 5.28 ± 3.01 %ID g^−1
  urine: 97.89 ± 1.22 %ID
LNCaP tumor-bearing mice; 48 h after i.v. injection
  T/B (ratio tumor to blood): 78.8
  T/K (ratio tumor to kidneys): 16.0
  T/M (ratio tumor to muscle): 66.7
  blood: 0.05 ± 0.03 %ID g^−1
  kidneys: 0.26 ± 0.14 %ID g^−1
  large intestine: 1.63 ± 0.31 %ID g^−1
  liver: 0.04 ± 0.01 %ID g^−1
  muscle: 0.06 ± 0.06 %ID g^−1
  small intestine: 0.45 ± 0.13 %ID g^−1
  spleen: 0.10 ± 0.09 %ID g^−1
  stomach: 0.03 ± 0.04 %ID g^−1
  tumor: 4.11 ± 1.08 %ID g^−1
  urine: 95.37 ± 1.89 %ID
[1]
  blood half-life: 10.4 min and 10.2 min

## O=C([O-])CN1CCN(CC(=O)[O-])CCN(CC(=O)NCC2CCC(C(=O)NC(Cc3c[nH]c4ccccc34)C(=O)NCCCCC(NC(=O)NC(CCC(=O)O)C(=O)O)C(=O)O)CC2)CCN(CC(=O)[O-])CC1.[177Lu+3] (centres unmarked) [[^177Lu]Lu-PSMA-D4]
[2]
  logD: −5.16 ± 0.07
LNCaP cells
  Internalization: 37.0 ± 3.3%
  Total Binding: 10.2%
PSMA antigen
  Kd: 2.4 ± 0.3 nM
  Specific Binding: 99.1 ± 0.3%
[3]
  blood half-life: 33 min
